Like-named read-outs stand apart in the source and are kept apart here.
Assays:
Assay in all cases: AlamarBlue proliferation assay, GI50
Assay type in all cases: cell-based
HEL92.1.7 = conditions: Homo sapiens, HEL 92.1.7, 72 hours, Table 4, read-out: GI50 HEL92.1.7 Erythroleukemia
Description: (§1) The TAK1 inhibitors are known in the art (see for example, WO 2003010158, WO 2003010163 and WO2004063186 the disclosures of which are incorporated by reference herein). All cell lines were plated at 10,000 cells/well in flat-bottomed 96 well plates and dosed with test compounds in triplicate over a 10 point dosing range from 0 to 30 μmolesL^−1. All cell lines were incubated with test compounds for a total of 72 hours. Background levels were determined for a control (undosed) plate within 2 hours of dosing test compounds. Following the dosing period, the extent of proliferation was measured by adding 1/10 (vol/vol) AlamarBlue reagent to every well and incubating the plates for a further 4 hours. The reaction was stopped by the addition of SDS to a final concentration of 0.1%. Fluorescence was measured at 545 nm (excitation) and 600 nm (emission). Growth inhibition 50 (GI50) values were determined for each test compound across the panel.

Karpas231 = conditions: Homo sapiens, 72 hours, Table 4, read-out: GI50 Karpas231 B-ALL
Description: as §1

ARH77 = conditions: Homo sapiens, ARH-77, 72 hours
Description: as §1

WSU-NHL = conditions: Homo sapiens, 72 hours, Table 4, read-out: GI50 WSU-NHL B-NHL
Description: as §1

SUDHL4 = conditions: Homo sapiens, SU-DHL-4, 72 hours, Table 4, read-out: GI50 SUDHL4 DLBCL
Description: as §1

Jurkat = conditions: Homo sapiens, 72 hours, Table 4, read-out: GI50 Jurkat T-ALL
Description: as §1

DOHH2 = conditions: Homo sapiens, DOHH-2, 72 hours, Table 4, read-out: GI50 DOHH2 FL
Description: as §1

KG1a = conditions: Homo sapiens, KG-1a, 72 hours, Table 4, read-out: GI50 KG1a AML
Description: as §1

OCI-LY19 = conditions: Homo sapiens, 72 hours, Table 4, read-out: GI50 OCI-LY19 DLBCL
Description: as §1

MEC1 = conditions: Homo sapiens, 72 hours
Description: as §1

GI50 (Karpas231): 60 nM
GI50 (SUDHL4): 3080 nM
GI50 (Jurkat): 10100 nM
GI50 (OCI-LY19): 54 nM
SMILES: COC(C)(C)CNCc1ccc(-c2cc(NC(N)=O)c(C(N)=O)s2)cc1 [Compound 4, 3-[(aminocarbonyl)amino]-5-(4-{[(2-methoxy-2-methylpropyl)amino]methyl}phenyl)thiophene-2-carboxamide]
GI50 (HEL92.1.7): 1470 nM
GI50 (ARH77; Table 4, read-out: GI50 ARH77 Plasma cell leukemia): 3720 nM
GI50 (ARH77; Table 5, read-out: GI50 ARH-77 plasma cell leukemia): 3720 nM
GI50 (WSU-NHL): 270 nM
GI50 (DOHH2): 101 nM
GI50 (KG1a): 1090 nM
GI50 (MEC1; Table 4, read-out: GI50 MEC1 B-CLL): 2990 nM
GI50 (MEC1; Table 6, read-out: GI50 MEC-1 B-CLL): 2990 nM
